# Data: patent publication US6150363A, “Dihydrophenazinecarboxylic acid derivatives” (priority 1996, dated 2000)
# Where a name gives a salt, the structure may show the parent alone.
# What was measured:
# [1] = tested on: N18-RE-105 cell; assay: Test for inhibition of BSO toxicity to neurocyte (LDH release); type: cell-based, hybridoma of mouse neuroblastoma and rat retinal neurocyte; conditions: for EC50: BSO 500 μM, 24 hours; for cytoprotective action to BSO toxicity in neurocyte: result in words
# Procedure: (2) Test for inhibition of BSO toxicity to neurocyte (neurocyte protective action against cytotoxicity accompanied by decrease of amount of intracellular glutathione)
# The culture of neurocyte N18-RE-105, addition of the test compound, and determination of lactate dehydrogenase (LDH) were carried out in the manner as described in (1) above. BSO was added at the concentration of 500 μM.
# [2] = tested on: N18-RE-105 cell; assay: Test for inhibition of glutamic acid toxicity to neurocyte (LDH release); type: cell-based, hybridoma of mouse neuroblastoma and rat retinal neurocyte; conditions: for EC50: 10 mM glutamic acid, 24 hours; for cytoprotective action to glutamic acid toxicity in neurocyte: result in words
# Procedure: Neuron 2, 1547 (1989) and J. Pharmacol. Exp. […] The dihydrophenazinecarboxylic acid derivatives of the invention were examined in the action to the glutamic acid-induced cell death. […] Hybridoma cells were plated at 6.25×10^3 cells/cm^2. on 96 well microplate in Dalbecco's modified MEM containing 10% FBS (fetal bovine serum) and HAT (hypoxanthine 0.1 mM, aminopterin 40 nM, thymidine 0.14 mM, Sigma Chem., Co.). […] After the addition of glutamic acid, the culture was maintained for further 24 hours. Then, the activity of lactate dehydrogenase (LDH) contained in the cells and the medium was determined. The LDH releasing ratio was calculated using the below-mentioned equation to examine the glutamic acid toxicity. LDH releasing ratio=[LDH activity in medium/(LDH activity in cells and LDH activity in medium)]×100
# [3] = tested on: free radical; conditions: cited from earlier work; for antioxidant property: J. Antibiotics, 48, 1378 (1995) and PCT WO96/22996; for free radical scavenger (anti-oxidant): J. Nat. Prod., 56, 1255(1993)
# [4] = tested on: glutamic acid toxicity; conditions: J. Antibiotics, 48, 1378 (1995) and PCT WO96/22996; cited from earlier work
# [5] = tested on: rat whole brain homogenate; assay: Test for inhibition of production of peroxidized lipid in rat whole brain homogenate (TBA method); type: biochemical; conditions: 10^-4 M, iron-ascorbic acid, 37° C., one hour
# Source text: (4) Test for inhibition of production of peroxidized lipid in rat whole brain homogenate
# From the rat which had been fed with vitamin E deficient food for 11 weeks, a whole brain was taken out and frozen in liquid nitrogen. After the frozen whole brain was pulverized to give a powder, it was homogenized by Dounce type homogenizer. The homogenate was subjected to centrifugal separation at 180×g for 10 minuets, and the supernatant was recovered. The recovered supernatant was employed as the whole brain homogenate. The reaction of lipid peroxidation was initiated by stimulation using iron-ascorbic acid. The peroxidized lipid was quantitatively analyzed by the thiobarbituric acid (TBA) method. In more detail, 200 μL of the whole brain homogenate (protein content: 12.5 mg/mL), 50 μL of ADP (2 mg/mL), 50 μL of FeSO4 (0.5 mM), 50 μL of ascorbic acid (12 mM), and 50 μL of the test compound were added to 100 μL of 0.2M Tris-HCl buffer solution. The mixture was incubated at 37° C. for one hour. After the incubation was complete, 50 μL of 0.5% butylhydroxytoluene/ethanol solution, 250 μL of 8.1% SDS (sodium dodecylsulfate) solution, 1,750 μL of 20% acetic acid, and 1,500 μL of 0.8% TBA solution were added to the incubated mixture. The resulting mixture was boiled for one hour. […] The separated supernatant was subjected to measurement of absorbance at 535 nm.
# [6] = tested on: hippocampal cells; assay: Test for inhibition of glutamic acid toxicity to hippocampal cells in primary culture (LDH); type: cell-based; conditions: hippocampal cell, rat fetus, 1 mM glutamic acid, 48 hours
# Source text: 1) Preparation of hippocampal cells (from rat fetus in primary culture) A pregnant rat (18 days pregnancy) was anesthetized by Pentobarbital sodium. Its abdomen was sterilized using 83% ethanol and treated to take its fetus out. The whole brain was taken out from the fetus under stereomicroscopical observation. From the brain, its hippocampal portion was taken out. The hippocampal portion was cut into small pieces using a knife. The procedures for taking the hippocampal portion out and cutting the portion into small pieces were performed in a Hanks buffer solution (4° C.) without Ca^2+ and Mg^2+. The pieces of hippocampus were treated with 0.25% trypsin/0.01% DNase I solution at 37° C. for 30 minutes. After the addition of dialyzed FBS at the concentration of 20%, the treated specimen was recovered by centrifugal separation and suspended in DMEM containing GMS-A obtained from GIBCO (S1 culture medium). The specimen was gently treated by a pipet to give a cell suspension. […] 2) Determination of activity (Lactate dehydrogenase (LDH) method) The cytoprotective action of the test compound was determined by measuring activity of LDH released from the dead cells and activity of LDH in the living cells. […] After the culturing procedure was complete, the activity of lactate dehydrogenase was determined in the manner described in 1) above.
# [7] = tested on: ddY strain male mice; assay: Acute toxicity, intravenous, mice; type: in vivo; conditions: 5 mg, intravenous injection
# Procedure: The compound of the invention (ethyl 7-benzoyl-5,10-dihydro-1-phenazinecarboxylate obtained in Example 1) was administered to ddY strain male mice (weight: 23 to 27 g) in a dose of 5 mg by intravenous injection.
# [8] = Stability at room temperature under atmospheric conditions; type: physicochemical
structure (smiles),measurement,setting,value
"CCOC(=O)c1cccc2c1Nc1ccc(C(=O)c3ccccc3)cc1N2C(=O)OC [Comparative, Ethyl 7-benzoyl-5,10-dihydro-5-methoxycarbonyl-1-phenazinecarboxylate]",EC50,[1],> 1 µM
same,cytoprotective action to BSO toxicity in neurocyte,[1],no cytoprotective action
same,EC50,[2],> 1 µM
same,cytoprotective action to glutamic acid toxicity in neurocyte,[2],no cytoprotective action
"CC(CNC(=O)c1cccnc1)NC(=O)c1cccnc1 (stereo not shown) [Nicarven, nicaraven]",EC50,[1],> 100 µM
same,cytoprotective action to BSO toxicity in neurocyte,[1],no cytoprotective action
same,EC50,[2],> 100 µM
same,cytoprotective action to glutamic acid toxicity in neurocyte,[2],no cytoprotective action
CC(C)=CCN1c2cc(C(=O)c3ccccc3)ccc2Nc2c(C(=O)OC3O[C@@H](C)[C@H](O)[C@@H](O)[C@H]3O)cccc21 (stereo partly shown) [aestivophoenin A],antioxidant property,[3],shows antioxidant property
same,inhibition of glutamic acid toxicity,[4],inhibit glutamic acid toxicity
"O=c1c2ccccc2[se]n1-c1ccccc1 [Ebselen, ebselen]",EC50,[1],7.5 µM
same,cytoprotective action to BSO toxicity in neurocyte,[1],no cytoprotective action
same,EC50,[2],10.1 µM
same,cytoprotective action to glutamic acid toxicity in neurocyte,[2],no cytoprotective action
"CCOC(=O)c1cccc2c1Nc1ccc(C(=O)c3ccccc3)cc1N2Cc1ccccc1 [Compound 3, Ethyl 7-benzoyl-5-benzyl-5,10-dihydro-1-phenazinecarboxylate]",EC50,[1],0.072 µM
same,EC50,[2],0.0407 µM
CC(C)=CCC/C(C)=C/CN1c2cc(C(=O)c3ccccc3)ccc2Nc2c(C(=O)O)cc(C(=O)c3ccccc3)cc21 [benthophoenin],free radical scavenger (anti-oxidant),[3],employable as a free radical scavenger (anti-oxidant)
COC(=O)c1cc(C(=O)c2ccccc2)cc2c1Nc1ccc(C(=O)c3ccccc3)cc1N2C/C=C(\C)CCC=C(C)C [its methyl ester],free radical scavenger (anti-oxidant),[3],employable as a free radical scavenger (anti-oxidant)
"CCOC(=O)c1cccc2c1Nc1ccc(C(=O)c3ccccc3)cc1N2C [Compound 4, Ethyl 7-benzoyl-5,10-dihydro-5-methyl-1-phenazinecarboxylate]",EC50,[1],0.09 µM
same,EC50,[2],0.058 µM
"CCOC(=O)c1cccc2c1Nc1ccc(C(=O)c3ccccc3)cc1N2CC=C(C)C [Compound 2, Ethyl 7-benzoyl-5,10-dihydro-5-(3-methyl-2-butenyl)-1-phenazinecarboxylate]",Inhibition of lipid peroxidation (% per control value),[5],60.2%
same,EC50,[1],0.0962 µM
same,EC25,[6],0.012 µM
same,EC50,[2],0.0145 µM
"CCOC(=O)c1cccc2c1Nc1ccc(C(=O)c3ccccc3)cc1N2 [Compound 1, Ethyl 7-benzoyl-5,10-dihydro-1-phenazinecarboxylate]",EC50,[1],0.006 µM
same,death (acute toxicity),[7],No death was observed
same,EC50,[2],0.0033 µM
CC(C)=CCc1cc(C(=O)c2ccccc2)cc2c1Nc1c(C(=O)OC3O[C@@H](C)[C@H](O)[C@@H](O)[C@H]3O)cccc1N2CC=C(C)C (stereo partly shown) [aestivophoenin B],antioxidant property,[3],shows antioxidant property
same,inhibition of glutamic acid toxicity,[4],inhibit glutamic acid toxicity
"CC(C)=CCN1c2cc(C(=O)c3ccccc3)ccc2Nc2c(C(=O)OCCCN(C)C)cccc21 [Compound 5, 3-(Dimethylamino)propyl 7-benzoyl-5,10-dihydro-5-(3-methyl-2-butenyl)-1-phenazinecarboxylate hydrochloride]",EC25,[6],0.0575 µM
"CCOC(=O)c1cccc2c1Nc1ccccc1N2 [ethyl 5,10-dihydro-1-phenazinecarboxylate]",stability,[8],unstable at room temperature
